According to ChEMBL document CHEMBL1201862, “PubChem BioAssay data set” (2004):
The source made the active and inactive calls.

Tests used:
Protein RecA = target: T1, Protein RecA (Mycobacterium tuberculosis, UniProt P9WHJ3); assay: Fluorescence Cell-Free Homogeneous Dose Retest to Identify Inhibitors of RecA-Intein Splicing Activity. [Related pubchem assays (depositor defined):AID2097, AID2223, AID489010, AID492950]; assay type: functional
T1 sequence (P9WHJ3 whole entry): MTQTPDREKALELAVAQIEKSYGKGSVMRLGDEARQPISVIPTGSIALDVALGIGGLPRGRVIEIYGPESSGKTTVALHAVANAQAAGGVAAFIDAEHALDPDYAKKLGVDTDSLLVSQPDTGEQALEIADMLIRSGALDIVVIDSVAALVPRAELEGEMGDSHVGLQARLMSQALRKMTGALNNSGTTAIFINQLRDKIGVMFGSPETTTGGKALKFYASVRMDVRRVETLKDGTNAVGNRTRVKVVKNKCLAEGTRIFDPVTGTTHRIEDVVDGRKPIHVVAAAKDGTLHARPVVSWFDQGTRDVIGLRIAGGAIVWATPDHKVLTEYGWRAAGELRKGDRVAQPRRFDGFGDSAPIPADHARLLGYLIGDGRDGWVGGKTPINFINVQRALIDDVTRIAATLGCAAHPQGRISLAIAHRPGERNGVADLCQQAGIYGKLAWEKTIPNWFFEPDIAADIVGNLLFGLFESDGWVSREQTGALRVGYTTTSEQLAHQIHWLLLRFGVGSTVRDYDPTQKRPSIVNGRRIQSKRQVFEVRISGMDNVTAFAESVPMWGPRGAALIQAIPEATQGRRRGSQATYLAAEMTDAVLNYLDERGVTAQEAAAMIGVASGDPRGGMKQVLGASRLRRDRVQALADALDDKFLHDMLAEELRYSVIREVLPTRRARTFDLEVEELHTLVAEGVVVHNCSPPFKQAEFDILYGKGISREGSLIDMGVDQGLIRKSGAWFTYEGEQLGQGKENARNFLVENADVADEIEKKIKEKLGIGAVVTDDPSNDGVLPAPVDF

[1] = target: T2, Histone-lysine N-methyltransferase NSD2 (Homo sapiens, UniProt O96028); assay type: biochemical
T2 sequence (O96028 whole entry): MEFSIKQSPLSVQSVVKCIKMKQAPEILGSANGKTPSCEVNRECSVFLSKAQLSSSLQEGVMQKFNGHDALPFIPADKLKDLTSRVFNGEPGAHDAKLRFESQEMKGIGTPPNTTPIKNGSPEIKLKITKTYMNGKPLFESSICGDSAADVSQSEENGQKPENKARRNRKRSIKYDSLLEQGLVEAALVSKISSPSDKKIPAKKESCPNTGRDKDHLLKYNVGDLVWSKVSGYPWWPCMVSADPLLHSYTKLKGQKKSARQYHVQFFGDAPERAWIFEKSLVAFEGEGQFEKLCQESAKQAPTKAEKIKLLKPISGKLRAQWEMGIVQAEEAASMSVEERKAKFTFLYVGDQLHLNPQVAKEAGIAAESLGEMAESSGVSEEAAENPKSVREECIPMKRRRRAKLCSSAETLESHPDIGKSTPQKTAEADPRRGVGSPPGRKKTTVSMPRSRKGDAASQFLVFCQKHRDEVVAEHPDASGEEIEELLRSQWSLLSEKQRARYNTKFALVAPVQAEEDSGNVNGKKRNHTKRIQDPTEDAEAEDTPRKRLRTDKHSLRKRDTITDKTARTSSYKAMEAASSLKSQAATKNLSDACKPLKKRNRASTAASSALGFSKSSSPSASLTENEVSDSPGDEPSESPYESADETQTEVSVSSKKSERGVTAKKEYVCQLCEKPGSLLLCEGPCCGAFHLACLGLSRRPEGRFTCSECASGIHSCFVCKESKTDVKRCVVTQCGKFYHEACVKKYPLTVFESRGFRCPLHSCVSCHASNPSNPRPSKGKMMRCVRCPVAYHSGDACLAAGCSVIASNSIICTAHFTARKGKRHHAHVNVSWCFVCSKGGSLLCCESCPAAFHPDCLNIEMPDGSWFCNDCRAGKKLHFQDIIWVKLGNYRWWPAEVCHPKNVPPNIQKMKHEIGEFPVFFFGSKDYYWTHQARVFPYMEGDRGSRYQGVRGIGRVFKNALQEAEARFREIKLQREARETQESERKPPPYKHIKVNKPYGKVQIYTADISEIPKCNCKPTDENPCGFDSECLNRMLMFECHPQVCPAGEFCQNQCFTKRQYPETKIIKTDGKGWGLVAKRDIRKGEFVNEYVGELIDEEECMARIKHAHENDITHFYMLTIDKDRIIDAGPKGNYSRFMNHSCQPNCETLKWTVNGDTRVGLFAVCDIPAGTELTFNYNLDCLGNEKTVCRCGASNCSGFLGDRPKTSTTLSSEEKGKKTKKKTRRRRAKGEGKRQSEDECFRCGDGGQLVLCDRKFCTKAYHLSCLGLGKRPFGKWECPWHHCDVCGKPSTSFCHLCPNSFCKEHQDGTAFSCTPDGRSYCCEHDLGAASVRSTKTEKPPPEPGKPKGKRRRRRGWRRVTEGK

Jurkat = assay: antigen receptor-induced NF-kB inhibitors, dose response, Jurkat, luciferase reporter, luminescence, B- and T-cell (AID 489004); assay type: functional, cell-based; conditions: Homo sapiens;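 also: NF-kB luciferase reporter Jurkat cells stimulated with PMA plus ionomycin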
[2] = target: G-protein coupled receptor 55 (Homo sapiens, UniProt Q9Y2T6); assay: GPR55 antagonists blocking LPI-driven arrestin recruitment, primary screen, imaging, U2OS, beta-arrestin-GFP, LPI agonist (AID 2013); assay type: functional;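 also: antagonist potency measured as reduced agonist-driven arrestin aggregation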
Chain of G-protein coupled receptor 55 (Q9Y2T6 whole entry): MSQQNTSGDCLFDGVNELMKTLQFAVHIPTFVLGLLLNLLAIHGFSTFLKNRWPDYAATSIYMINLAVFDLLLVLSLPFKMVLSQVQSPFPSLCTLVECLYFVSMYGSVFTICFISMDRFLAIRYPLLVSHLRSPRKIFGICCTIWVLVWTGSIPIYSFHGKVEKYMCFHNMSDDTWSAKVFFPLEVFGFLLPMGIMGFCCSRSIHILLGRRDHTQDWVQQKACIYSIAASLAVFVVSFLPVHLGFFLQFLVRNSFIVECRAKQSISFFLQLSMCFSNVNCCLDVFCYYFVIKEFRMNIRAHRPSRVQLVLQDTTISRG

[3] = target: Kappa-type opioid receptor (Homo sapiens, UniProt P41145); assay type: functional
Chain of Kappa-type opioid receptor (P41145 whole entry): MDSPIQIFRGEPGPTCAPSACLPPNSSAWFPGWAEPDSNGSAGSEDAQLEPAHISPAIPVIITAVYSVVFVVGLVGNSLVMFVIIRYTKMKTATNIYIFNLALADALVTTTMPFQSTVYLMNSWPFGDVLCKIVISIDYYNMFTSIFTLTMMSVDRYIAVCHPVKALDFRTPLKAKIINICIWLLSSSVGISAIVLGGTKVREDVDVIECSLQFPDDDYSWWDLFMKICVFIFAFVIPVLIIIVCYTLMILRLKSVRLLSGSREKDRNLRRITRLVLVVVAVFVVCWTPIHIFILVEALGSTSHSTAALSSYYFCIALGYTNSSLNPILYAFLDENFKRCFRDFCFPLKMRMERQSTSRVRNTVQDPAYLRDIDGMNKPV

Structure (SMILES) | EC50 (Protein RecA) | AC50 [1] | IC50 (Jurkat) | IC50 [2] | IC50 [3]
CCN(CC)CCN1C(=O)c2cccc3cc(N)cc(c23)C1=O | 0.209 µM (active) |  |  |  | 
O=S(=O)(O)c1cc(Cl)cc(N=Nc2ccc(O)cc2O)c1O |  | 7.27 µM (active) |  |  | 
O=C(O)c1cccc(-n2cccc2/C=C2/NC(=O)N(c3ccc(Cl)cc3)C2=O)c1 |  | 0.72 µM (active) |  |  | 
C=C1C(=O)O[C@@H]2C[C@@H](C)[C@@H]3C=CC(=O)[C@@]3(C)[C@@H](OC(=O)CC(=O)O[C@H]3[C@@H]4C(=C)C(=O)O[C@@H]4C[C@@H](C)[C@@H]4C=CC(=O)[C@]43C)[C@H]12 | 46 µM (active) |  | 0.29 µM (active) | 1.85 µM (active) | 13.4 µM (active)
